For the experiment, the target named is T1, recombinant human GSK3β (Homo sapiens, UniProt P49841).
T1 construct: purchased Dundee University, UK
T1 sequence (P49841 whole entry): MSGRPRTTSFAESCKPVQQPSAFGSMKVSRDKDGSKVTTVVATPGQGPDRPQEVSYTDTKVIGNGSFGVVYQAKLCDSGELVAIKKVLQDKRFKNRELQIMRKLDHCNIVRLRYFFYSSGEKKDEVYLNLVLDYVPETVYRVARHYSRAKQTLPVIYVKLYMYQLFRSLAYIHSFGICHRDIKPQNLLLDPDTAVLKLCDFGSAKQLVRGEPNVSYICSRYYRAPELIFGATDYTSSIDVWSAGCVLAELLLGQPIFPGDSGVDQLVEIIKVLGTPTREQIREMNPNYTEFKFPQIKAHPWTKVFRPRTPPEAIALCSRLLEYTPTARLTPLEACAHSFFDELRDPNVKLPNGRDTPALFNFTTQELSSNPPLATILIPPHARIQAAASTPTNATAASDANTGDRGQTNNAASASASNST
The experiment is described as follows: GSK3β Scintillation Proximity Assay (ATP competition). It is filed as biochemical. The following applies: recombinant human GSK3β SPA; 1 μM ATP, 1 μM biotinylated peptide substrate; Ki calculated with Km of ATP 20 μM. As for the experimental part: Determination of ATP Competition in Scintillation Proximity GSK3β Assay.
GSK3β Scintillation Proximity Assay.
The competition experiments were carried out in duplicate with 10 different concentrations of the inhibitors in clear-bottom microtiter plates (Wallac, Finland). A biotinylated peptide substrate, Biotin-Ala-Ala-Glu-Glu-Leu-Asp-Ser-Arg-Ala-Gly-Ser(PO3H2)-Pro-Gln-Leu (AstraZeneca, Lund), was added at a final concentration of 1 μM in an assay buffer containing 1 mU recombinant human GSK3β (Dundee University, UK), 12 mM morpholinepropanesulfonic acid (MOPS), pH 7.0, 0.3 mM EDTA, 0.01% β-mercaptoethanol, 0.004% Brij 35 (a […] detergent), 0.5% glycerol and 0.5 μg BSA/25 μl. The reaction was initiated by the addition of 0.04 μCi [γ-^33P]ATP (Amersham, UK) and unlabelled ATP at a final concentration of 1 μM and assay volume of 25 μl. After incubation for 20 minutes at room temperature, each reaction was terminated by the addition of 25 μl stop solution containing 5 mM EDTA, 50 μM ATP, 0.1% Triton X-100 and 0.25 mg streptavidin coated Scintillation Proximity Assay (SPA) beads (Amersham, UK). After 6 hours the radioactivity was determined in a liquid scintillation counter (1450 MicroBeta Trilux, Wallac). The inhibition curves were analysed by non-linear regression using GraphPad Prism, USA. The Km value of ATP for GSK3β, used to calculate the inhibition constants (Ki) of the various compounds, was 20 μM.
For `Cc1ncc(-c2nc(NC3CCN(C(=O)c4ccccc4)CC3)ncc2F)n1C1CCOCC1` [Example 38, N-(1-Benzoylpiperidin-4-yl)-5-fluoro-4-[2-methyl-1-(tetrahydro-2H-pyran-4-yl)-1H-imidazol-5-yl]pyrimidin-2-amine], the Ki was 57 nM.
To `Cc1ncc(-c2nc(Nc3cncnc3)ncc2F)n1C1CCOCC1` [Example 1, 5-Fluoro-4-[2-methyl-1-(tetrahydro-2H-pyran-4-yl)-1H-imidazol-5-yl]-N-pyrimidin-5-ylpyrimidin-2-amine] belongs 220 nM.
The same measure for `Cc1ncc(-c2nc(Nc3ccc(CN4CC(C)OC(C)C4)nc3)ncc2F)n1C1CCOCC1` (stereo not shown) [Example 17, N-{6-[(2,6-Dimethylmorpholin-4-yl)methyl]pyridin-3-yl}-5-fluoro-4-[2-methyl-1-(tetrahydro-2H-pyran-4-yl)-1H-imidazol-5-yl]pyrimidin-2-amine]: 760 nM.
To `Cc1ncc(-c2nc(Nc3cncc4ccccc34)ncc2F)n1C1CCOCC1` [Example 30, {5-Fluoro-4-[2-methyl-3-(tetrahydro-pyran-4-yl)-3H-imidazol-4-yl]-pyrimidin-2-yl}-isoquinolin-4-yl-amine] belongs 200 nM; to `Cc1ncc(-c2nc(Nc3ccc(CN4CCC(N5CCCC5)CC4)nc3)ncc2F)n1C1CCOCC1` [Example 25, 5-Fluoro-4-[2-methyl-1-(tetrahydro-2H-pyran-4-yl)-1H-imidazol-5-yl]-N-{6-[(4 pyrrolidin-1-ylpiperidin-1-yl)methyl]pyridin-3-yl}pyrimidin-2-amine], 210 nM; to `CC(=O)N1CCCN(Cc2ccc(Nc3ncc(F)c(-c4cnc(C)n4C4CCOCC4)n3)cn2)CC1` [Example 16, N-{6-[(4-Acetyl-1,4-diazepan-1-yl)methyl]pyridin-3-yl}-5-fluoro-4-[2-methyl-1-(tetrahydro-2H-pyran-4-yl)-1H-imidazol-5-yl]pyrimidin-2-amine], 75 nM.
For `CC(=O)N1CCC(Nc2ncc(F)c(-c3cnc(C)n3C3CCOCC3)n2)CC1` [Example 35, N-(1-Acetylpiperidin-4-yl)-5-fluoro-4-[2-methyl-1-(tetrahydro-2H-pyran-4-yl)-1H-imidazol-5-yl]pyrimidin-2-amine], the Ki was 120 nM.
The same measure for `COC1CCN(Cc2ccc(Nc3ncc(F)c(-c4cnc(C)n4C4CCOCC4)n3)cn2)CC1` [Example 22, 5-Fluoro-N-{6-[(4-methoxypiperidin-1-yl)methyl]pyridin-3-yl}-4-[2-methyl-1-(tetrahydro-2H-pyran-4-yl)-1H-imidazol-5-yl]pyrimidin-2-amine]: 150 nM.
As to `Cc1ncc(-c2nc(Nc3ccc(CNCC#N)nc3)ncc2F)n1C1CCOCC1` [Example 29, ({[5-({5-Fluoro-4-[2-methyl-1-(tetrahydro-2H-pyran-4-yl)-1H-imidazol-5-yl]pyrimidin-2-yl}amino)pyridin-2-yl]methyl}amino)acetonitrile], the Ki was 48 nM.
Turning to `Cc1ncc(-c2nc(NC3CCN(C(=O)Cc4ccccc4)CC3)ncc2F)n1C1CCOCC1` [Example 39, 5-Fluoro-4-[2-methyl-1-(tetrahydro-2H-pyran-4-yl)-1H-imidazol-5-yl]-N-[1-(phenylacetyl)piperidin-4-yl]pyrimidin-2-amine], the Ki was 36 nM.
`CC(=O)c1cncc(Nc2ncc(F)c(-c3cnc(C)n3C3CCOCC3)n2)c1` [Example 2, 1-[5-({5-Fluoro-4-[2-methyl-1-(tetrahydro-2H-pyran-4-yl)-1H-imidazol-5-yl]pyrimidin-2-yl}amino)pyridin-3-yl]ethanone]: the Ki is 49 nM.
The same measure for `Cc1ncc(-c2nc(Nc3ccc(CN4CCN(c5ncccn5)CC4)nc3)ncc2F)n1C1CCOCC1` [Example 14, 5-Fluoro-4-[2-methyl-1-(tetrahydro-2H-pyran-4-yl)-1H-imidazol-5-yl]-N-{6-[(4 pyrimidin-2-ylpiperazin-1-yl)methyl]pyridin-3-yl}pyrimidin-2-amine]: 10 nM.
Turning to `Cc1ncc(-c2nc(Nc3ccc(CN(CCC#N)CC4CCCO4)nc3)ncc2F)n1C1CCOCC1` (stereo not shown) [Example 26, 3-[{[5-({5-Fluoro-4-[2-methyl-1-(tetrahydro-2H-pyran-4-yl)-1H-imidazol-5-yl]pyrimidin-2-yl}amino)pyridin-2-yl]methyl}(tetrahydrofuran-2-ylmethyl)amino]propanenitrile], the Ki is 75 nM.
The same measure for `Cc1ncc(-c2nc(Nc3ccc(CN4CCCC4)nc3)ncc2F)n1C1CCOCC1` [Example 19, 5-Fluoro-4-[2-methyl-1-(tetrahydro-2H-pyran-4-yl)-1H-imidazol-5-yl]-N-[6-(pyrrolidin-1-ylmethyl)pyridin-3-yl]pyrimidin-2-amine]: 210 nM.
As for `Cc1ncc(-c2nc(Nc3ccc(CNCCCN4CCCC4=O)nc3)ncc2F)n1C1CCOCC1` [Example 24, 1-[3-({[5-({5-Fluoro-4-[2-methyl-1-(tetrahydro-2H-pyran-4-yl)-1H-imidazol-5-yl]pyrimidin-2-yl}amino)pyridin-2-yl]methyl}amino)propyl]pyrrolidin-2-one], the Ki was 230 nM.
To `COC[C@@H]1CCCN1Cc1ccc(Nc2ncc(F)c(-c3cnc(C)n3C3CCOCC3)n2)cn1` [Example 15, 5-Fluoro-N-(6-{[(2S)-2-(methoxymethyl)pyrrolidin-1-yl]methyl}pyridin-3-yl)-4-[2-methyl-1-(tetrahydro-2H-pyran-4-yl)-1H-imidazol-5-yl]pyrimidin-2-amine] belongs 1300 nM.
